Our source for the IC50 values is patent US11465989B2, “Guanidine compounds and use thereof” (IMMUNOMET THERAPEUTICS INC., priority 2014, dated 2022).

One assay relates to SK-MEL-28 cells. As to the kind of experiment: Cytotoxicity in low glucose condition (MTT). The note with it: Homo sapiens, SK-MEL-28, 0.75 mM glucose, 72 hours, read-out: SK-MEL-28 0.75 mM glucose Cell viability (IC50 ia). Type of assay: cell-based. The source says: The inhibition of oxidative phosphorylation (OXPHOS) is not cytotoxic to cells in normal glucose condition, because it is postulated that normal cells have compensatory mechanism under energy stress conditions such as low glucose. However OXPHOS inhibitors show cytotoxic effect on cells in the glucose deprived condition (BirsoyK, 2014). The glucose deprived condition is observed in tumor microenvironment potentially due to poor angiogenesis. Therefore the OXPHOS inhibitors may show anti-cancer effect on cancer cells in low glucose condition that may depict tumor microenvironment.
The compounds of the present invention were evaluated their cytotoxicity in SK-MEL-28, melanoma with 0.75 mM glucose supplement. The cytotoxic effect is compared with the cytotoxicity caused by phenformin. The cytotoxicity in low glucose condition is correlated with inhibition of oxygen consumption in mitochondria.
SK-MEL-28 (HTB-72) is a melanoma cell line obtained from ATCC (MA) and cultured in RPMI 1640 media (Lifetechnologies, CA) with supplement of 10% FBS and antibiotic-antimycotic (Lifetechnologies, CA). RPMI 1640 (-Glucose) was used to prepare low glucose media and 0.75 mM glucose was supplied with D-(+)-glucose solution from Sigma. SK-MEL-28 cells were separated from culture plate using 0.5% trypsin-EDTA and 5,000 cells were plated in 96-well plate with low glucose media. After incubation at 37° C. for 24 hour, 5% CO2, the cells were treated with the compounds of present invention in FBS-free media for 72 hours. The cytotoxicity was measured by the MTT (AMRESCO, OH) assay. NADH-dependent cellular oxidoreductase reduces MTT to its insoluble […] with purple color. The enzyme depends on cell number or energy state of cells. 10 μl of 5 mg/ml MIT solution was added to each well of the assay plate and skip the well for blank. The plate was incubated at 37° C. and 5% CO2 for 2 hours. The MTT solution was removed from each well and 100 μl of DMSO was added. The plate was read by VICTOR X3 Multilabel Counter at the wavelength of 550 nm. In Table 2, the levels of IC50 are evaluated by the following criteria.

The test system of a further assay is A549 cells. As to the kind of experiment: Inhibition of OCR (XF Analyzer). The note with it: Homo sapiens, A549, 24 h. Type of assay: cell-based. An excerpt: The electron transfer complex in mitochondria is composed of 5 complexes. The complex I accept electrons from NADH produced from glycolysis and TCA cycle and the electrons move to complex […] and the electron is finally transferred to O2 and water molecule is generated. During the electron transfer, proton gradient is generated and the chemical gradient is a driving source to synthesize ATP at complex V. The mitochondrial inhibition of complex I indirectly assessed by measuring the oxygen consumption rate (OCR) at complex IV. […] The solution outside of cells becomes acidic (lower pH) as lactate is transported to outside of cells. OCR and Extracellular acidification rate (ECAR) are determined by XF Analyzer (Seahorse Biosciences).
A549 cells were purchased from American Type Tissue Culture Collection ([…]) and cultured in RPMI 1640 supplied with 10% fetal bovine serum (FBS) and antibiotic-antimycotic (Lifetech, CA). A549 cells were separated with 0.5% Trypsin-EDTA and 3,000 cells were plated on 1 mg/ml poly-D-lysine (Sigma, P6407) coated XF 96 well […]. A549 cells were allowed to adhere to the wells for 24 hours under the condition of temperature, 37° C. and 5% CO2 The sensor cartridge of XF Analyzer was soaked in 200 Ad of Calibrant solution (Seahorse, MA) in a clear 96-well plate at 37° C. for 24 hours. The compounds of the present invention were diluted with RPMI 1640 without FBS, transferred to A549 cells on XF 96 well plate, and incubated further for 23 hours at 37° C. and 5% CO2. After incubation, the compound solution was exchanged with pre-warmed and pH adjusted (pH7.4) XF assay media (Seahorse) supplied with 15 mM D-glucose (Sigma), 15 mM sodium pyruvate (Lifetechnologies, CA) and 4 mM L-glutamine (Lifetechnologies, CA). The compounds of present invention were prepared in XF Assay media and added to the assay plate. The assay plate was equilibrated in XF Analyzer for 1 hour, and the reading were started by sensor cartridge. The cytotoxicity assay was followed using Cyquant (Lifetechnologies, CA) in order to calibrate the inhibition with cytotoxicity of compounds. The concentrations of the compounds were tested at […] and IC50 value was obtained from the inhibited values. That is, from OCR inhibition values at each concentration of the compound, IC50 was calculated according to Prism's dose response curve fitting.
In Table 1, the levels of OCR IC50 are evaluated by the following.

Structures can show the parent of a compound that is named as a salt.

`COc1cc(CCNC(=N)NC(=N)N)ccc1I` [Example 77, N-1-(4-iodo-3-methoxy)phenethylbiguanide hydrochloride]: the IC50 (commonly the concentration at which inhibition is half-maximal) was 5 to 10 µM with SK-MEL-28 cells and 2 to 5 µM with A549 cells.

Take `N=C(N)NC(=N)NCc1ccc(-c2ccccc2)cc1` [Example 49, N-1-(4-phenyl)benzylbiguanide hydrochloride]: the IC50 is > 10 µM in the assay with SK-MEL-28 cells and > 5 µM in the assay on A549 cells.

For the compound `N=C(N)NCc1ccc2c(c1)CCCC2` [Example 199, 1-((5,6,7,8-tetrahydronaphthalen-2-yl)methylguanide hydrochloride], the IC50 was > 10 µM in the assay with SK-MEL-28 cells and > 5 µM in the assay on A549 cells.

With `Cc1ccc(CNC(=N)NC(=N)N)c(C)c1` [Example 18, N-1-(2,4-dimethyl)benzylbiguanide hydrochloride], the IC50 with SK-MEL-28 cells is > 10 µM; in the assay on A549 cells, > 5 µM.

For `N=C(N)NC(=N)NCCc1ccc(Br)c(Br)c1` [Example 70, N-1-(3,4-dibromo)phenethylbiguanide hydrochloride], the IC50 with SK-MEL-28 cells was < 5 µM; in the assay on A549 cells, 2 to 5 µM.

For the compound `Cc1cc(F)ccc1CCNC(=N)NC(=N)N` [Example 17, N-1-(4-fluoro-2-methyl)phenethylbiguanide hydrochloride], the IC50 in the assay with SK-MEL-28 cells was > 10 µM; in the assay on A549 cells, 2 to 5 µM.

As for `Cc1ccccc1CCNC(=N)NC(=N)N` [Example 22, N-1-(2-methyl)phenethylbiguanide hydrochloride], the IC50 in the assay on SK-MEL-28 cells is > 10 µM; in the assay on A549 cells it was < 2 µM.

With `N=C(N)NC(=N)NCc1ccc2c(c1)CCCC2` [Example 48, N-1-2-(5,6,7,8-tetrahydronaphthalen-2-yl)methanebiguanide hydrochloride], the IC50 with SK-MEL-28 cells is > 10 µM; with A549 cells it was < 2 µM.

As to `N=C(N)NC(=N)NCCc1ccc(I)c(Cl)c1` [Example 78, N-1-(3-chloro-4-iodo)phenethylbiguanide hydrochloride], the IC50 in the assay on SK-MEL-28 cells is < 5 µM; in the assay with A549 cells, < 2 µM.

For `N=C(N)NC(=N)NCCc1ccc(Cl)c(I)c1` [Example 74, N-1-(3-iodo-4-chloro)phenethylbiguanide hydrochloride], the IC50 in the assay on SK-MEL-28 cells was < 5 µM; in the assay with A549 cells, < 2 µM.

As for `N=C(N)NCC1CCCCC1` [Example 205, 1-(1-cyclohexylmethyl) guanide hydrochloride], the IC50 with SK-MEL-28 cells was > 10 µM; in the assay with A549 cells it was 2 to 5 µM.

`Cc1cc(CCNC(=N)NC(=N)N)ccc1Cl` [Example 61, N-1-(4-chloro-3-methyl)phenethylbiguanide hydrochloride]: the IC50 in the assay on SK-MEL-28 cells was < 5 µM; in the assay with A549 cells, 2 to 5 µM.

On to `COc1cc(Cl)ccc1CCNC(=N)NC(=N)N` [Example 80, N-1-(2-methoxy-4-chloro)phenethylbiguanide hydrochloride], for which the IC50 in the assay with SK-MEL-28 cells was > 10 µM; in the assay on A549 cells it was < 2 µM.

For the compound `N=C(N)NC(=N)NCc1ccc(Cl)c(Cl)c1` [Example 37, hydrochloride], the figures for the IC50 in the assay on SK-MEL-28 cells and in the assay with A549 cells were 5 to 10 µM and > 5 µM, respectively.

Take `N=C(N)NCCc1ccc(-c2ccccc2)cc1` [Example 195, 1-(4-phenylphenethyl)guanide hydrochloride]: the figures for the IC50 in the assay with SK-MEL-28 cells and in the assay on A549 cells were < 5 µM and 2 to 5 µM, respectively.

On to `CCCNC(=N)NC(=N)NCCc1ccc(Cl)c(Cl)c1` [Example 128, N-1-propyl-N-5-(3,4-dichloro)phenethylbiguanide hydrochloride], for which the IC50 in the assay with SK-MEL-28 cells is < 5 µM; in the assay with A549 cells, > 5 µM.

As for `N=C(N)NCCc1ccc2c(c1)CCCC2` [Example 183, 1-(2-(5,6,7,8-tetrahydronaphthalen-2-yl)ethyl)guanide hydrochloride], the IC50 with SK-MEL-28 cells was < 5 µM; in the assay on A549 cells, < 2 µM.

As to `Cc1cc(F)ccc1CCNC(=N)N` [Example 169, 1-(4-fluoro-2-methylphenethyl)guanide hydrochloride], the results for the IC50 with SK-MEL-28 cells and with A549 cells were > 10 µM and > 5 µM, respectively.

Regarding `N=C(N)NC(=N)NCCc1ccc2c(c1)CCCC2` [Example 44, N-1-2-(5,6,7,8-tetrahydronaphthalen-2-yl)ethylbiguanide hydrochloride], the values for the IC50 in the assay on SK-MEL-28 cells and in the assay on A549 cells were < 5 µM and 2 to 5 µM, respectively.

In the case of `N=C(N)NC(=N)NCCc1ccc(Br)c(I)c1` [Example 75, N-1-(3-iodo-4-bromo)phenethylbiguanide hydrochloride], the IC50 was < 5 µM with SK-MEL-28 cells and < 2 µM in the assay on A549 cells.

On to `N=C(N)NCCc1ccc(C2CC2)cc1` [Example 182, 1-(4-cyclopropylphenethyl)guanide hydrochloride], for which the results for the IC50 in the assay on SK-MEL-28 cells and in the assay with A549 cells were 5 to 10 µM and 2 to 5 µM, respectively.

On to `COc1cc(Br)ccc1CCNC(=N)NC(=N)N` [Example 81, N1-(2-methoxy-4-bromo)phenethylbiguanide hydrochloride], for which the figures for the IC50 in the assay on SK-MEL-28 cells and with A549 cells were 5 to 10 µM and < 2 µM, respectively.

For `N=C(N)NCc1c(F)cc(F)cc1F` [Example 153, 1-(2,4,6-trifluorobenzyl)guanide hydrochloride], the figures for the IC50 in the assay with SK-MEL-28 cells and in the assay with A549 cells were > 10 µM and > 5 µM, respectively.

Turning to `N=C(N)NC(=N)NCCc1ccc(Cl)c(Br)c1` [Example 76, N-1-(3-bromo-4-chloro)phenethylbiguanide hydrochloride], the IC50 in the assay on SK-MEL-28 cells is < 5 µM; in the assay with A549 cells, 2 to 5 µM.

As for `N=C(N)NC(=N)NCCc1ccccc1Br` [Example 26, N-1-(2-bromo)phenethylbiguanide hydrochloride], the values for the IC50 in the assay on SK-MEL-28 cells and in the assay with A549 cells were < 5 µM and < 2 µM, respectively.

`Cc1ccc(CCNC(=N)N)cc1C` [Example 133, 1-(3,4-dimethylphenethyl)guanide hydrochloride]: the IC50 in the assay on SK-MEL-28 cells is 5 to 10 µM; with A549 cells it was < 2 µM.

For the compound `N=C(N)NC(=N)NCCc1ccc(I)c(Br)c1` [Example 72, N-1-(4-iodo-3-bromo)phenethylbiguanide hydrochloride], the values for the IC50 with SK-MEL-28 cells and in the assay with A549 cells were 5 to 10 µM and > 5 µM, respectively.

For the compound `CNC(=N)NC(=N)NCCc1ccc(Cl)c(Cl)c1` [Example 122, N-1-(3,4-dichloro)phenethyl-N5-methylbiguanide hydrochloride], the IC50 in the assay with SK-MEL-28 cells was 5 to 10 µM; in the assay with A549 cells it was > 5 µM.

Consider `N=C(N)NCCC1CCCCC1` [Example 197, 1-(2-cyclohexylethyl)guanide hydrochloride], for which the IC50 was > 10 µM in the assay with SK-MEL-28 cells and 2 to 5 µM in the assay on A549 cells.

As to `COc1cc(I)ccc1CCNC(=N)NC(=N)N` [Example 79, N-1-(2-methoxy-4-iodo)phenethylbiguanide hydrochloride], the results for the IC50 with SK-MEL-28 cells and with A549 cells were 5 to 10 µM and < 2 µM, respectively.

Turning to `Cc1ccc(CCNC(=N)NC(=N)N)cc1Cl` [Example 50, N-1-(3-chloro-4-methyl)phenethylbiguanide hydrochloride], the values for the IC50 in the assay on SK-MEL-28 cells and in the assay with A549 cells were < 5 µM and 2 to 5 µM, respectively.

For `N=C(N)NC(=N)NCCc1ccc(F)c(Cl)c1` [Example 52, N-1-(3-chloro-4-fluoro)phenethylbiguanide hydrochloride], the IC50 is 5 to 10 µM with SK-MEL-28 cells and > 5 µM in the assay with A549 cells.
